From patent US7671026B2, “Cytomodulating peptides for treating interstitial cystitis” (Sangstat Medical Corporation, priority 2002, dated 2010)

Experiments:
[1] = test system: TNF-α; test: Ex vivo LPS-stimulated bladder tissue culture, TNF-α ELISA; assay type: cell-based, mice; details: first study; BALB/c bladder tissue, 1 ug LPS + RDP58 50 uM final, 18 hrs, each pool
Method: The ability of RDP58 peptide bc-1nL in inhibiting cytokine production in bladder cells was examined. In a first study, BALB/c mice were euthanized with CO2 and the bladders harvested after voiding it of urine. Bladders were gently washed with RMPI 1640 media containing penicillin and streptomycin and minced into 1-2 mm pieces. Equal amounts of tissue were incubated overnight at 37° C. in 0.5 ml of RPMI culture medium in the presence of 1 ug LPS (E. coli. 055:B5; Sigma), 50 ul of RDP58 peptide (1 mg/ml) (50 uM final concentration), 1 ug LPS+50 ul of RDP58 peptde, or media alone. The culture supernatants were collected after 18 hrs, clarified by centrifugation, and assayed by ELISA for cytokines TNF-αand IFN-γ.
In a second study, bladders from 12 normal mice were harvested, pooled into four sets of three bladders, and the tissues minced into 1-2 mm pieces. Equal amounts of tissue were incubated overnight in culture media containing LPS, RDP58 peptide, LPS+RDP58 peptide, or media, as described above. After clarifying the culture medium by centrifugation, supernatants were assayed for presence of TNF-α by ELISA.

[2] = test system: CD3 positive cells; test: Chronic interstitial cystitis model, CD3/CD45 immunostaining of bladder sections; assay type: in vivo, mice; details: animals exposed to LPS, then RDP58; 24 hrs and 72 hrs after RDP58 treatment
Method: Chronic IC model was induced in mice by transurethrally catheterizing mice and instilling with 15 ug of E.coli. lipopolysaccharide (LPS) in 150 ul. Controls were instilled with 150 ul of saline. Animals were treated three times per week for two weeks. To determine the effect of RDP58, animals were instilled with the peptide following 14 days of LPS instillation. Histological analyses of the bladders were carried out 24 or 72 hrs post treatment. Cytokine levels were assayed by removing the bladder 24 hrs following RDP58 treatment, culturing the tissue ex vivo, and assaying for cytokines, as described above. Bladder permeability used the FITC-dextran assay.
Bladder from the various animal groups were removed after the treatments and then sectioned. Morphology was examined by staining with haematoxylin-eosin. Sections were examined for the presence of T-cell differentiation markers CD3 or CD45 by immunostaining with anti-CD45 and anti-CD3 antibodies.

**Q.** What does the source list for “Arg-nL-nL-nL-Arg-nL-nL-nL-Gly-Tyr [RDP58]”?
**A.** inhibition of TNF-α production [1]: about 30%; CD3 positive cells in bladder tissue sections [2]: reduction of CD3 positive cells
